Experimental data from patent US20150080559A1, “Compositions Containing, Methods Involving, and Uses of Non-Natural Amino Acid Linked Dolastatin Derivatives” (priority 2011, published 2015).
Like-named read-outs stand apart in the source and are kept apart here.

What was measured:
[1] = test system: SKOV-3; assay: In vitro inhibition of proliferation assay (WST-8), SKOV-3; assay type: cell-based; conditions: 72 hr, read-out: IC50 Values after 72 hr drug treatment, SKOV-3
Description: (§1) At day 1, the cells were seeded. The media was aspirated and the T-225 culture flasks of cells was rinsed with 30 mL PBS −/. PBS was aspirated and 6 mL of 0.25% Trypsin-EDTA was added to each flask. The flasks were incubated at 37C, 5% CO2 for 2-5 minutes. Adherent cells were dislodged by hitting flask and trypsin was neutralized by adding 14 mL culture medium. The cell suspension was mixed and transferred to a 50 mL conical tube. The cells were spun down at 1200 rpm, 5 min, room temperature. The resultant cell pellet was resuspended in 12 mL of culture medium. The cells were counted in a hemacytometer. Cells were seeded at appropriate cell densities into 96-well flat-bottom, clear plates and incubated overnight at 37° C., 5% CO2 to allow cells to attach. Plating volume was 80 uL/well. 80 uL/well of culture medium was utilized as the “no cell” control.
(§2) Cell plating density examples include: • BT474 (high Her2)—20,000 cells/well in F12k/DMEM (50/50), 10% FBS, P/S • MDA-MB-468 (Her2 negative)—6,000 cells/well in F12k/DMEM (50/50), 10% FBS, P/S • HCC1954—5,000 cells/well in RPMI 1640, 10% FBS, P/S • SKOV-3—6,000 cells/well in RPMI 1640, 10% FBS, P/S • HT29—20,000 cells/well in McCoy's 5A, 10% FBS, P/S
(§3) At day 2, the test samples were added to the cells. The test samples were diluted in culture medium to a 9× stock concentration in Column 2 of a round-bottom 96-well plate. 3× serial dilutions were made from Column 2 to Column 11 with a multi-channel pipettor. 10 uL/well of the above samples was added in duplicate to the appropriate wells of the seeded plate. The total volume in the wells was about 90 uL/well. 10 uL/well of culture medium was added to avoid edge effects for sample wells. Media Control wells were included in the inner wells where no sample was added (just 10 uL/well of culture medium) to be used in proliferation calculations. The plates were incubated at 37° C., 5% CO2 for 72 hrs.
(§4) At day 5, proliferation readout occurred. […] The plates were measured for absorbance at OD 450 nm. […]

[2] = test system: BT474; assay: In vitro inhibition of proliferation assay (WST-8), BT474; assay type: cell-based; conditions: 72 hr, read-out: IC50 Values after 72 hr drug treatment, BT474
Description: as §1, §2, §3, §4

[3] = test system: ZR-75-30; assay: In vitro inhibition of proliferation assay (WST-8), ZR-75-30; assay type: cell-based; conditions: Data Set I, experiment Sep. 4, 2010; 72 hr; read-out: IC50 Values after 72 hr drug treatment, ZR-75-30
Description: as §1
(§5) At day 2, the test samples were added to the cells. The test samples were diluted in culture medium to a 9× stock concentration in Column 2 of a round-bottom 96-well plate. 3× serial dilutions were made from Column 2 to Column 11 with a multi-channel pipettor. 10 uL/well of the above samples was added in duplicate to the appropriate wells of the seeded plate. The total volume in the wells was about 90 uL/well. […]
as §4

[4] = test system: LS513; assay: In vitro inhibition of proliferation assay (WST-8), LS513; assay type: cell-based; conditions: Data Set I, experiment Sep. 4, 2010; 72 hr; read-out: IC50 Values after 72 hr drug treatment, LS513
Description: as §1, §5, §4

[5] = test system: HT29; assay: In vitro inhibition of proliferation assay (WST-8), HT29; assay type: cell-based; conditions: Data Set II, experiment Sep. 24, 2010; 72 hr; read-out: IC50 Values after 72 hr drug treatment, HT29
Description: as §1, §2
(§6) At day 2, the test samples were added to the cells. […]
as §4

[6] = test system: MDA-MB-175; assay: In vitro inhibition of proliferation assay (WST-8), MDA-MB-175; assay type: cell-based; conditions: Data Set I, experiment Sep. 13, 2010
Description: as §1, §5, §4

[7] = test system: HCC1954; assay: In vitro inhibition of proliferation assay (WST-8), HCC1954; assay type: cell-based, human; conditions: 72 hr, read-out: IC50 Values after 72 hr drug treatment, HCC1954
Description: as §1, §2, §6, §4

[8] = test system: NCI-N87; assay: In vitro inhibition of proliferation assay (WST-8), NCI-N87; assay type: cell-based; conditions: Data Set I, experiment Sep. 4, 2010; 72 hr; read-out: IC50 Values after 72 hr drug treatment, NCI-N87
Description: as §1, §5, §4

[9] = test system: MDA-MB-468; assay: In vitro inhibition of proliferation assay (WST-8), MDA-MB-468; assay type: cell-based; conditions: Data Set II, experiment Oct. 8, 2010; 72 hr; read-out: IC50 Values after 72 hr drug treatment, MDA-MB-468
Description: as §1, §2, §6, §4

[10] = Data Set I, experiment Sep. 4, 2010
[11] = Data Set I, experiment Sep. 13, 2010
[12] = Data Set II, experiment Oct. 8, 2010

Question: What does the source list for Dolastatin?
Answer: IC50 [1, 10]: 200 pM; IC50 [1, 11]: 100 pM; IC50 [1, 12]: 200 pM; IC50 [2, 10]: 100 pM; IC50 [2, 11]: 100 pM; IC50 ([2]; Data Set II, experiment Sep. 24, 2010): 2500 pM; IC50 [3]: > 30000 pM; IC50 [4]: 200 pM; IC50 [5]: 4000 pM; IC50 Values after 72 hr drug treatment, MDA-MB-175 [6]: no fit; IC50 [7, 10]: 60 pM; IC50 [7, 12]: 40 pM; IC50 [8]: > 30000 pM; IC50 [9]: < 10 pM
